The text below walks through data of PMC7424068, “Design, Synthesis, and Biological Evaluation of Novel Thiazolidinone-Containing Quinoxaline-1,4-di-N-oxides as Antimycobacterial and Antifungal Agents” (Frontiers in Chemistry, 2020).

The test system of one series is Mtb H37Rv (ATCC27294). Put plainly: Antimycobacterial activity, microplate Alamar blue assay (MABA). The conditions noted are these: Mtb H37Rv. Format: cell-based, Mycobacterium tuberculosis. In general terms: Resazurin is reduced to fluorescent resorufin, in cell work by metabolically active cells.
A further series concerns C. albicans (ATCC90028). As to the kind of experiment: Antifungal activity, broth microdilution. Format: cell-based, Candida albicans. To be noted: Candida albicans ATCC 90028, read-out: MIC. How it is done: (§1) All synthesized compounds and the positive control drugs amphotericin B and ketoconazole were tested for their in vitro antifungal activity. Antifungal activity was evaluated against four fungi, C. albicans (ATCC90028), C. tropicalis (ATCC7349), A. fumigatus (3.5352), and C. neoformans (2.3201), by broth microdilution according to the protocols from the NCCLS (Jiang et al., [2014]). Briefly, all tested compounds were dissolved in DMSO, and the solutions were diluted with fresh broth medium. All of the fungi-seeded broth (1 × 10^5 colony-forming units [CFU]/mL) were prepared in RPMI 1640 medium and added into the serially diluted drug solution. The tubes were incubated at 28°C, and the MIC (μg/mL) was recorded 72–96 h post-incubation. Broth control (without fungi), growth controls (with fungi and without drug), solvent (DMSO) control, and drug control for both test drugs and standard drugs were set under identical conditions. The minimum drug concentration in the tubes in which no apparent growth of the organism was observed represented the MIC of the compounds.
(In general: In broth dilution the organism is exposed to a series of concentrations in liquid medium.)

Another series concerns A. fumigatus (3.5352). As to the kind of experiment: Antifungal activity, broth microdilution. It counts as cell-based. The conditions noted are these: Aspergillus fumigatus; A. fumigatus 3.5352; read-out: MIC. How it is done: as §1
A further series deals with C. neoformans (2.3201). As to the kind of experiment: Antifungal activity, broth microdilution. Format: cell-based. The conditions noted are these: Cryptococcus neoformans; C. neoformans 2.3201; read-out: MIC. How it is done: as §1
The next series has as its system C. tropicalis (ATCC7349). As to the kind of experiment: Antifungal activity, broth microdilution. Format: cell-based. The conditions noted are these: Candida tropicalis, C. tropicalis ATCC 7349, read-out: MIC. How it is done: as §1
The mark [1] stands for this setting: Mycobacterium tuberculosis, MABA assay, read-out: MIC.
Where [2] appears, read: Mycobacterium tuberculosis, repeated in Table 5 for the 3D-QSAR models, read-out: MIC.
[3] abbreviates: Mycobacterium tuberculosis, experimental pMIC, Table 5, read-out: pMIC exp (converted).

In brackets after ≈: the same amount, converted by molar mass. Read-outs that look alike come from different tables or passages of the source. Where only a bound is given, the exact number is not on record here.

As usually defined, the melting point is the temperature, or range, at which the solid turns liquid. As for `COc1ccc2c(c1)[n+]([O-])c(C1SCC(=O)N1c1ccccc1)c[n+]2[O-]` (centres unmarked) [2l, 7-OMe-2-(3′-phenyl-4′(5H)-thiazolidinone)-quinoxaline-1,4-di-N-oxide], the melting point is 254 to 258 °C. Besides, in the series with Mtb H37Rv (ATCC27294) (setting [1]), the MIC was 100 µg/mL. The MIC with Mtb H37Rv (ATCC27294) (setting [2]) came to 100 µg/mL. Further, the MIC in the series on Mtb H37Rv (ATCC27294) (setting [3]) was 271 µM. Besides, the MIC with C. albicans (ATCC90028) was found to be 64 µg/mL (≈ 173 µM). For the same compound, the MIC in the series on A. fumigatus (3.5352) is > 64 µg/mL. Moreover, the MIC in the series on C. neoformans (2.3201) was > 64 µg/mL. Besides, the MIC in the series on C. tropicalis (ATCC7349) was found to be 32 µg/mL (≈ 86.6 µM).

`Cc1ccc(N2C(=O)CSC2c2c[n+]([O-])c3ccc(F)cc3[n+]2[O-])cc1` (centres unmarked) [2r, 7-F-2-(3′-P-methylphenyl-4′(5H)-thiazolidinone)-quinoxaline-1,4-di-N-oxide] registered a melting point of 249 to 251 °C. Besides, the MIC in the series on Mtb H37Rv (ATCC27294) (setting [1]) came out at 12.5 µg/mL. Further, the MIC in the series with Mtb H37Rv (ATCC27294) (setting [2]) turned out to be 12.5 µg/mL. The MIC in the series on Mtb H37Rv (ATCC27294) (setting [3]) was 33.7 µM. For the same compound, the MIC in the series with C. albicans (ATCC90028) was 8 µg/mL (≈ 21.5 µM). Besides, the MIC with A. fumigatus (3.5352) was found to be 8 µg/mL (≈ 21.5 µM). The MIC in the series on C. neoformans (2.3201) amounted to 16 µg/mL (≈ 43.1 µM). In the series on C. tropicalis (ATCC7349), the MIC stood at 8 µg/mL (≈ 21.5 µM).

`COc1ccc2c(c1)[n+]([O-])c(C1SCC(=O)N1c1ccc(Cl)cc1)c[n+]2[O-]` (centres unmarked) [2p, 7-OMe-2-(3′-P-chlorophenyl-4′(5H)-thiazolidinone)-quinoxaline-1,4-di-N-oxide] displayed a melting point of 253 to 256 °C. In addition, the MIC with Mtb H37Rv (ATCC27294) (setting [1]) came out at 50 µg/mL. Also, the MIC in the series on Mtb H37Rv (ATCC27294) (setting [2]) came out at 50 µg/mL. Further, in the series with Mtb H37Rv (ATCC27294) (setting [3]), the MIC is 124 µM. For the same compound, the MIC in the series on C. albicans (ATCC90028) worked out at 64 µg/mL (≈ 158 µM). Also, in the series with A. fumigatus (3.5352), the MIC was > 64 µg/mL. For the same compound, in the series with C. neoformans (2.3201), the MIC was determined as 32 µg/mL (≈ 79.2 µM). The MIC in the series with C. tropicalis (ATCC7349) stood at 64 µg/mL (≈ 158 µM).

`COc1ccc2c(c1)[n+]([O-])c(C1SCC(=O)N1c1ccc(F)cc1)c[n+]2[O-]` (centres unmarked) [2o, 7-OMe-2-(3′-P-fluorophenyl-4′(5H)-thiazolidinone)-quinoxaline-1,4-di-N-oxide] yielded a melting point of 255 to 257 °C. The MIC with Mtb H37Rv (ATCC27294) (setting [1]) came to 50 µg/mL. In the series on Mtb H37Rv (ATCC27294) (setting [2]), the MIC stood at 50 µg/mL. The MIC in the series with Mtb H37Rv (ATCC27294) (setting [3]) is 129 µM. Besides, the MIC in the series on C. albicans (ATCC90028) was found to be 64 µg/mL (≈ 165 µM). In the series on A. fumigatus (3.5352), the MIC is 64 µg/mL (≈ 165 µM). Also, the MIC in the series with C. neoformans (2.3201) came out at 32 µg/mL (≈ 82.6 µM). In addition, the MIC in the series with C. tropicalis (ATCC7349) is 64 µg/mL (≈ 165 µM).

On to `N=C1NC(=O)/C(=C/c2c[n+]([O-])c3ccccc3[n+]2[O-])S1` [V, 2-(2′-iminothiazolidin-4′-one)-quinoxaline-1,4-di-N-oxide], for which the figures for the MIC with Mtb H37Rv (ATCC27294) (MABA assay) and with Mtb H37Rv (ATCC27294) (setting [1]) were >50 µg/mL and > 50 µg/mL, respectively.

On to `Cc1ccc(N2C(=O)CSC2c2c[n+]([O-])c3ccc(C)cc3[n+]2[O-])cc1` (centres unmarked) [2h, 7-CH3-2-(3′-P-methylphenyl-4′(5H)-thiazolidinone)-quinoxaline-1,4-di-N-oxide], for which the melting point lay within 257 to 259 °C. Moreover, the MIC with Mtb H37Rv (ATCC27294) (setting [1]) turned out to be 25 µg/mL. Also, in the series on Mtb H37Rv (ATCC27294) (setting [2]), the MIC was found to be 25 µg/mL. Besides, the MIC in the series with Mtb H37Rv (ATCC27294) (setting [3]) was 68.1 µM. Moreover, the MIC in the series with C. albicans (ATCC90028) worked out at 32 µg/mL (≈ 87.1 µM). Besides, the MIC in the series with A. fumigatus (3.5352) was 64 µg/mL (≈ 174 µM). In addition, the MIC in the series with C. neoformans (2.3201) came to 32 µg/mL (≈ 87.1 µM). In the series on C. tropicalis (ATCC7349), the MIC was 8 µg/mL (≈ 21.8 µM).

In the case of `O=C1CSC(c2c[n+]([O-])c3ccccc3[n+]2[O-])N1` (centres unmarked) [VI, 2-(4'(5H)-thiazolone)-quinoxaline-1,4-di-N-oxide], the MIC with Mtb H37Rv (ATCC27294) (setting [1]) is 6.25 µg/mL.

With `O=C1CSC(c2c[n+]([O-])c3ccccc3[n+]2[O-])N1C1CC1` (centres unmarked) [2f, 2-(3′-cyclopropyl-4′(5H)-thiazolidinone)-quinoxaline-1,4-di-N-oxide], the melting point was in the range of 249 to 252 °C. For the same compound, in the series with Mtb H37Rv (ATCC27294) (setting [1]), the MIC is 25 µg/mL. Further, the MIC in the series on Mtb H37Rv (ATCC27294) (setting [2]) worked out at 25 µg/mL. In the series on Mtb H37Rv (ATCC27294) (setting [3]), the MIC was 82.4 µM. Also, the MIC in the series with C. albicans (ATCC90028) stood at 32 µg/mL (≈ 105 µM). In the series on A. fumigatus (3.5352), the MIC was 64 µg/mL (≈ 211 µM). In the series with C. neoformans (2.3201), the MIC was found to be 64 µg/mL (≈ 211 µM). Also, in the series on C. tropicalis (ATCC7349), the MIC was 16 µg/mL (≈ 52.7 µM).

In turn, `COc1ccc(N2C(=O)CSC2c2c[n+]([O-])c3ccc(Cl)cc3[n+]2[O-])cc1` (centres unmarked) [2x, 7-Cl-2-(3′-P-methoxyphenyl-4′(5H)-thiazolidinone)-quinoxaline-1,4-di-N-oxide] had a melting point of 252 to 254 °C. In the series on Mtb H37Rv (ATCC27294) (setting [1]), the MIC is 12.5 µg/mL. In the series on Mtb H37Rv (ATCC27294) (setting [2]), the MIC amounted to 12.5 µg/mL. Besides, the MIC in the series on Mtb H37Rv (ATCC27294) (setting [3]) is 31 µM. Besides, the MIC in the series with C. albicans (ATCC90028) turned out to be 8 µg/mL (≈ 19.8 µM). For the same compound, the MIC in the series on A. fumigatus (3.5352) was 8 µg/mL (≈ 19.8 µM). In addition, in the series on C. neoformans (2.3201), the MIC is 8 µg/mL (≈ 19.8 µM). Moreover, the MIC in the series with C. tropicalis (ATCC7349) was determined as 8 µg/mL (≈ 19.8 µM).
